Results taken from the METLIN SMRT retention time set (Domingo-Almenara et al. 2019).

Experiment: gradient 5% acetonitrile 3 min, to 50% in 2 min, to 85% in 15 min, held 3 min, 100 µL/min
Conditions: column: Zorbax Extend-C18 2.1 x 50 mm; eluents: water / acetonitrile, 0.1% formic acid
How it was run: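 Retention times come from adduct peaks that were picked computationally and then checked by hand. The standards, pure and pooled in mixtures of ~100 molecules, were run on a Zorbax Extend-C18 column (2.1 × 50 mm, 1.8 μm) at 100 μL/min with water and acetonitrile, each with 0.1% formic acid. Detection was by quadrupole time-of-flight mass spectrometry in positive and negative ionization mode, with a dead volume of 40 μL and a dwell volume of 900 μL.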

Row | Compound | RP-LC retention time [s]
1 | CCN(C(=O)Cc1csc2nc(-c3ccccc3)cn12)c1ccccc1 | 852
2 | Cc1ccc(CNC(=O)c2ccc3ncnc(N4CCCC4)c3c2)cc1 | 656
3 | CC1CCN(C(=O)C2=CN(c3ccccc3)c3ccccc3S2(=O)=O)CC1 | 919
4 | O=C(c1ccc(Br)cc1)N1CCc2nc(-c3ccccc3)ncc2C1 | 1000
5 | c1ccc(COCC2CCN(Cc3ccccc3)CC2)cc1 | 588
6 | CC(Oc1ccc(=O)n(-c2ccc(F)cc2)n1)C(=O)Nc1cccc(Cl)c1 (stereo not given) | 802
7 | Cc1cc(OCC(=O)N2CCC3(O)CCCCC3C2)c2c3c(c(=O)oc2c1)CCCC3 (stereo not given) | 859
8 | O=C(NCc1noc(C2CCCC2)n1)c1ccccc1 | 796
9 | CCOCCCNC(=O)C1CCCN(c2nccnc2Oc2ccc(C)cc2)C1 (stereo not given) | 926
10 | COCCN1C(=O)c2ccccc2C(C(=O)NCCc2ccc(F)cc2)C12CCCC2 (stereo not given) | 874
11 | Cc1cc2nc(C(=O)NCC(C)C)c(=O)n(C)c2cc1C | 668
12 | Cc1ccc(CNC(=O)C2CCN(S(=O)(=O)c3ccc4c(c3)CCCC(=O)N4)CC2)o1 | 710
13 | CCOC(=O)C1CCCN(c2ncnc3c2cnn3-c2ccccc2)C1 (stereo not given) | 1070
14 | CCCCOc1ccc(C(=O)N2CCCC2c2nc(-c3ccccc3)no2)cc1 (stereo not given) | 1230
15 | O=C(C1=NNc2ccccc2S1(=O)=O)N1CCOCC1 | 618
16 | CCCC(=O)Nc1nc(-c2ccccc2)c(C(=O)OCC)s1 | 973
17 | Cc1ccc(S(=O)(=O)N2CCC(c3nc(-c4ccncc4)no3)CC2)cc1C | 983
18 | CCC(=O)N1CCCc2ccc(NC(=O)c3ccco3)cc21 | 729
19 | Cc1ccc(Cl)cc1N(C)C(=O)Cn1cnc2nc3c(cc2c1=O)CCCC3 | 809
20 | COc1ccc(-c2noc(C3CC(=O)N(c4ccc(C)c(F)c4)C3)n2)cc1OC (stereo not given) | 984
21 | COc1ccccc1N1CCN(C(=O)C2CCN(c3c(C)n(C)c(=O)n(C)c3=O)CC2)CC1 | 718
22 | Cc1cnc(C2CCC2)n1CC1CCN(C(=O)C2(c3ccccc3)CC2)CC1 | 592
23 | Cc1ccc(CN2CCCn3nc(C(=O)NCc4ccco4)cc3C2=O)cc1 | 804

Row | Compound | RP-LC retention time [s]
24 | O=C(NCc1ccc(Br)cc1)c1cn2ccccc2n1 | 726
25 | CC(C)N1CCN(C(=O)c2cn3ccnc(-c4ccccc4)c3n2)CC1 | 602
26 | Cc1ccc(CNC(=O)C2(C)Cn3nc(C(=O)NCCCN4CCCCCC4)cc3C(=O)N2C)cc1 (stereo not given) | 617
27 | O=C(CC(=O)Nc1ccccc1F)Nc1ccc2nc3n(c(=O)c2c1)CCCCC3 | 722
28 | CN(C)C(=O)c1cc2cnc(Nc3ccc(N4CCNCC4)cn3)nc2n1C1CCCC1 | 630
29 | O=C(Cn1cnc2nc(N3CCC(C(=O)NC4CC4)CC3)sc2c1=O)Nc1ccc(F)c(F)c1 | 705
30 | CCCn1nnc(NCc2ccc(-c3ccc(Br)cc3Br)o2)n1 | 1230
31 | O=C(Nc1cnn(-c2ncncc2N2CCOCC2)c1)c1cc2c(s1)CCCC2 | 789
32 | Fc1ccc(-c2ccc(CNCc3ccccn3)o2)cc1 | 655
33 | COC(=O)c1c(-c2ccccc2)noc1NCc1ccccc1OC | 1100
34 | O=C(CCn1nnc2cc(-c3noc(-c4ccc(C(F)(F)F)cc4)n3)ccc21)N1CCOCC1 | 974
35 | Cc1noc(-c2cc(=O)n(CC(=O)Nc3ccc(Cl)cc3)c3ccccc23)n1 | 915
36 | CCCN1CCn2cc(S(=O)(=O)Nc3ccccc3C)cc2C1=O | 746
37 | Cc1cc(C)cc(NC(=O)N2CCC(c3cc(N)on3)CC2)c1 | 728
38 | O=C(CNC(=O)c1ccc(=O)[nH]c1)NCc1ccc(OCc2ccccc2)cc1 | 661
39 | COC(=O)c1cn(Cc2c(F)cccc2Cl)nc1S(=O)(=O)N(C)c1ccccc1 | 718
40 | O=C(c1ccc(-c2cccnc2)nc1)N1CCN(c2ccccc2F)CC1 | 688
41 | COc1ccc(Cl)cc1NC(=O)Cn1c(=O)n(-c2ccc(C)cc2)c(=O)c2c1cc(C)n2C | 984
42 | CCC(=O)N1CCc2cc(C(=O)NCc3ccc4c(c3)OCO4)ccc21 | 761
43 | COC(=O)c1ncn2c1C(=O)N(Cc1cccc(F)c1)C(C)(C(=O)NCc1ccc(C)cc1)C2 (stereo not given) | 760
44 | COc1ccc(OC)c(CNC(=O)NC2COc3ccc(OC)cc3C2)c1 (stereo not given) | 810
45 | CCCn1c(C)cnc1C1CN(S(=O)(=O)c2ccc(Cl)c(C)c2)C1 | 732
46 | O=c1c2cc(-c3cccs3)nn2cnn1Cc1nc(-c2ccccc2Cl)no1 | 1040

Row | Compound | RP-LC retention time [s]
47 | Cc1nc(-c2ccc3c(c2)CCN3C(=O)C2COc3ccccc3O2)cs1 (stereo not given) | 1020
48 | COc1c(C(=O)NCCN2CCC(C)CC2)sc2ccc(Cl)cc12 | 710
49 | COc1cccc2cc(C(=O)NC3C=CS(=O)(=O)C3)oc12 (stereo not given) | 652
50 | CC(C)Oc1ccc(-c2noc(-c3nn(-c4cccc(F)c4)ccc3=O)n2)cc1 | 1010
51 | Cc1ccc(NC(=O)NCC(c2cccnc2)c2c[nH]c3ccccc23)cc1F (stereo not given) | 693
52 | Cn1c(C(=O)NCc2ccccc2)cc2sc(Cl)cc21 | 1060
53 | Cc1cccc(NC(=O)Nc2nccn(-c3cccc(Cl)c3)c2=O)c1 | 1040
54 | Cc1ccc(NC(=O)CSc2nccc(N3CCN(c4cc(C)ccc4C)CC3)n2)c(Cl)c1 | 1190
55 | Cc1ccc(NC(=O)Nc2ccc3nnc(C)n3c2)cc1C | 719
56 | O=C(O)c1cc2cc(Cc3cccnc3)ccc2o1 | 592
57 | COc1cc(C2CN(C(=O)c3ccc4c(c3)OCO4)CC2C(=O)NCCC(C)C)cc(OC)c1OC (stereo not given) | 738
58 | CC(C)CN1CCn2cc(C(=O)NCc3cc(F)ccc3F)nc2C1 | 608
59 | Cc1cccc(-n2c(=O)c3c(cc(C)n3C)n(CC(=O)Nc3ccc(C)cc3Cl)c2=O)c1 | 942
60 | CCC(=O)N1CCc2c(C(=O)NC3CCCCCC3)cccc21 | 887
61 | COC(=O)Cn1c(-c2ccc(C)cc2)cnc1SCC(=O)Nc1nnc(C)s1 | 680
62 | CC(C)(C)C(O)CCNC(=O)C(=O)NCc1ccccc1 (stereo not given) | 740
63 | Cc1ccc(NC(=O)C(=O)NCC2CCN(S(=O)(=O)C3CC3)CC2)cc1F | 828
64 | CC(=O)Nc1ccc(SCCCC(=O)Nc2nc3ccccc3s2)nn1 | 691
65 | O=C(NCCc1cn2c(n1)SCC2)C(=O)Nc1ccc2c(c1)OCCO2 | 556
66 | CN(C)CCNCc1ccc(-c2cc(Cl)cc(Cl)c2)o1 | 597
67 | CC(NS(=O)(=O)c1ccc2c(c1)CCN2C(=O)N1CCCC1)C(=O)N1CCCCC1 (stereo not given) | 720
68 | Cc1ccc(C)c(C(=O)NCC(C)(O)c2ccccc2)c1 (stereo not given) | 759
69 | CCCS(=O)(=O)N1CCCC(C)(C(=O)NCc2ccc(OC)cc2)C1 (stereo not given) | 798

Row | Compound | RP-LC retention time [s]
70 | CCCn1ncc(N2CCC(C(=O)NCCCOC(C)C)CC2)cc1=O | 650
71 | CCOC(=O)N1CCN(c2cc(-c3nc(-c4cccc(OC)c4OC)no3)c3ccccc3n2)CC1 | 1250
72 | CCOC(=O)c1ccc(OC(=O)c2cn(C)c(=O)c3ccccc23)cc1 | 953
73 | Cc1ccc(-n2c(N3CCCC(C(=O)NCc4ccc(Cl)cc4)C3)nc3ccsc3c2=O)cc1 (stereo not given) | 956
74 | CCn1c(=O)c(C)nc2cc(-c3noc(/C=C/c4ccc(OC)c(OC)c4)n3)ccc21 | 1010
75 | CCOc1ccc(-c2noc(Cc3nnc(-c4ccccc4)o3)n2)cc1 | 1040
76 | CCC1CCCCN1C(=O)c1cnc2nc(C)ccc2c1Nc1ccc(F)cc1C (stereo not given) | 703
77 | CCn1nc(CNC(=O)c2cncc(Br)c2)c2ccccc21 | 820
78 | O=C(Nc1ccc(F)cc1)N1CCC(n2c(-c3ccco3)nc3cccnc32)C1 (stereo not given) | 749
79 | COc1ncc(C(=O)Nc2cc(C)ccc2F)c(C)n1 | 756
80 | CCOC(=O)C1CCc2sc(NC(=O)CCc3csc4nc(C5CC5)cn34)nc21 (stereo not given) | 599
81 | COCCn1ccc2nc(C)c(C(=O)NCCc3c[nH]c4ccccc34)cc2c1=O | 767
82 | O=C(CCc1nc(CSc2nnc(-c3ccccc3)o2)no1)Nc1ccc(Br)cc1 | 967
83 | CCOC(=O)c1cccc(NC(=O)c2cnc(-c3ccc(C)cc3)nc2-c2ccncc2)c1 | 1050
84 | O=C(Cc1cn(Cc2ccc(Cl)cc2)c2ccccc12)NC1CC1 | 884
85 | COc1ccccc1NC(=O)Cn1nc2cc(C)nc(-c3ccccc3)n2c1=O | 819
86 | Cc1nc(-c2ccccc2)oc1CC(=O)N1CCCCCC1 | 868
87 | CCCN(CCC)C(=O)C1CCCN(c2ncnc3c2nc2n3CCCCC2)C1 (stereo not given) | 836
88 | CCCNc1cc(N2CCC(CCC(=O)NC3CCN(Cc4ccccc4)CC3)CC2)ncn1 | 572
89 | Cc1ccc(NC2CC(=O)N(c3cccc([N+](=O)[O-])c3)C2=O)cc1 (stereo not given) | 882
90 | Cc1ccn2cc(-c3ccc(NC(=O)C(C)Oc4ccccc4)cc3)nc2n1 (stereo not given) | 672
